Each structure is given as a SMILES string.

Data set [1] can be described thus: Mouse PK study (IV and PO). The class given is in vivo. The conditions noted are these: male, C57BL/6, mouse, plasma, male C57BL/6 mice; for AUC(0-inf): IV 2 mg/kg and PO 10 mg/kg study; for bioavailability / Cmax: po, 10 mg/kg; for bioavailability: IV 2 mg/kg and PO 10 mg/kg, read-out: F % (bioavailability); for Cmax: PO group 10 mg/kg. How it is done:
This example describes the pharmacokinetic (PK) data obtained for various compounds of the present disclosure, from studies using mice. The following PK parameters were calculated: • Bioavailability (F %) were calculated using the linear/log trapezoidal rule • Peak plasma concentrations (Cmax (ng/mL)) were taken directly from the plasma concentration vs. time profiles for the PO group • Area under the curve e.g., the area under the concentration curve from time 0 to infinity (AUC0-inf(ng*h/mL)). Experimental Procedures
After intravenous (IV) and oral (PO) administration at 2 mg/kg and 10 mg/kg to male C57BL/6 mice, respectively, the blood samples were collected at the designed sampling time points. All blood samples were transferred into pre-chilled commercial polyethylene microcentrifuge tubes containing K2-EDTA as an anticoagulant. Samples were processed for plasma by centrifugation. Plasma samples was transferred into polypropylene tubes pre-chilled on dry ice and then quickly frozen over dry ice and kept at −70±10° C. until LC-MS/MS analysis. Mice plasma samples were analyzed using qualified bioanalytical methods based on protein precipitation followed by LC-MS/MS analysis. Individual plasma concentration data of each compound was subjected to noncompartmental pharmacokinetic analysis using Phoenix WinNonlin™. Nominal doses were used for pharmacokinetic parameters calculation.

Data set [2] has as its system LPA 18:2 level in rat plasma. Kind of data set: In vitro LPA assay, reduction of LPA 18:2 level in rat plasma (LC-MS/MS). The conditions noted are these: 2 hr at 37° C., LPA 18:2 reduction. The format is biochemical. As for the experimental part:
(§1) Autotaxin (ATX) plays an important role in lysophosphatidic acid (LPA) signaling. An in vitro LPA assay was conducted to determine IC50 values of the test compounds on reduction of LPA 18:2 level in rat or mouse plasma. This example describes the assay data (IC50 value ranges) of exemplary compounds from LPA assays using mouse and rat plasma. Compound GPLG-1690 was assayed as a reference compound.
(§2) The 10 mM DMSO stock solutions of test compounds and 4-fold serial dilutions of the test compounds were prepared at various concentrations. The diluted solutions of the compounds were diluted with 1×PBS (pH 7.5) buffer. 38 μL of rat or mouse plasma samples were mixed with 2 μL of the diluted solutions of the compounds or 2% DMSO solutions in 96-well plate (final 0.1% DMSO). After incubating for 2 hr at 37° C., 120 μL MeOH containing IS (250 ng/mL of LPA 17:0) was added to each well. Mixture was vortexed for 1 min, and then centrifuged for 30 min (4000 rpm, 4° C.). 100 μL supernatant was transferred to a 96-well plate containing 100 μL pure water and the plate was shaken for 10 min. 5 μL supernatant was injected into LC-MS/MS system. No calibration curve will be prepared for LPA 18:2 and all quantifications were performed based on peak area ratios (LPA 18:2/LPA 17:0). For each concentration of compound LPA data were expressed as percentage of reduction (% reduction) using the formula. 100−[((LPA ratio-LPA ratio in control sample after 0 hr incubation)/(LPA ratio in control sample after 2 hr incubation—LPA ratio in control sample after 0 hr incubation))*100]. Data

Data set [3] concerns LPA 18:2 level in mouse plasma. Kind of data set: In vitro LPA assay, reduction of LPA 18:2 level in mouse plasma (LC-MS/MS). The class given is biochemical. The conditions noted are these: 2 hr at 37° C., LPA 18:2 reduction. How it is done: as §1, §2
A further data set has as its target hATX/ENPP2 (Homo sapiens, UniProt Q13822). Kind of data set: hATX/ENPP2 biochemical assay using 16:0-LPC as substrate (Amplex Red/choline oxidase/HRP fluorescence). The conditions noted are these: hENPP2 2.5 nM, LPC (16:0) substrate. Put shortly: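 Enzyme preincubated with compounds 15 min at room temperature in 50 mM Tris-HCl pH 8.0, 140 mM NaCl, 5 mM CaCl2, 0.01% Triton X-100. Reaction started with 80 μM LPC (16:0) stock plus Amplex Red/choline oxidase/HRP mix; fluorescence (ex 530/em 590 nm) read kinetically. IC50 from slope between 60 and 70 min.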

Consider `CCc1nc2ccc(-c3ccc(N4CCN(C(=O)N5CC[C@@H](O)C5)CC4)nc3)cn2c1N(C)c1nc(-c2ccc(F)cc2)c(C#N)s1` [Compound 92, (R)-2-((2-ethyl-6-(6-(4-(3-hydroxypyrrolidine-1-carbonyl)piperazin-1-yl)pyridin-3-yl)imidazo[1,2-a]pyridin-3-yl)(methyl)amino)-4-(4-fluorophenyl)thiazole-5-carbonitrile], for which, in data set [1], the total exposure AUC(0-inf) worked out at 22800 ng·h/mL, the bioavailability turned out to be 25% and the peak level (Cmax) was 4260 ng/mL. Also, the concentration for half-maximal inhibition (IC50) in data set [2] was in the range of 200 to 800 nM. Further, the IC50 in data set [3] is no more than 200 nM. Further, on hATX/ENPP2, the IC50 is no more than 20 nM.
Take `CCc1nc2ccc(-c3ccc(N4CCC(C(=O)N5CCCC5)CC4)nc3)cn2c1N(C)c1nc(-c2ccc(F)cc2)c(C#N)s1` [Compound 113, 2-((2-ethyl-6-(6-(4-(pyrrolidine-1-carbonyl)piperidin-1-yl)pyridin-3-yl)imidazo[1,2-a]pyridin-3-yl)(methyl)amino)-4-(4-fluorophenyl)thiazole-5-carbonitrile]: the total exposure AUC(0-inf) in data set [1] came out at 40500 ng·h/mL. In addition, the bioavailability in data set [1] amounted to 44.7%. For the same compound, the peak level in data set [1] (Cmax) was 6530 ng/mL. Moreover, the IC50 in data set [2] is no more than 200 nM; in data set [3], greater than 800 nM; at hATX/ENPP2 it was no more than 20 nM.
Turning to `CCc1nc2ccc(-c3ccc(N4CCC(C(=O)N5CC[C@@H](O)C5)CC4)nc3)cn2c1N(C)c1nc(-c2ccc(F)cc2)c(C#N)s1` [Compound 114, (R)-2-((2-ethyl-6-(6-(4-(3-hydroxypyrrolidine-1-carbonyl)piperidin-1-yl)pyridin-3-yl)imidazo[1,2-a]pyridin-3-yl)(methyl)amino)-4-(4-fluorophenyl)thiazole-5-carbonitrile], in data set [1], the area under the curve AUC(0-inf) stood at 38000 ng·h/mL, the bioavailability was determined as 28.4% and the peak concentration (Cmax) was found to be 7040 ng/mL. Also, the half-inhibitory concentration (IC50) in data set [2] is 200 to 800 nM. Moreover, in data set [3], the half-maximal inhibitory concentration (IC50) lay in the range of 200 to 800 nM. For the same compound, the half-inhibitory concentration (IC50) on hATX/ENPP2 is no more than 20 nM.
With `CCc1nc2ccc(-c3cnc(N4CCC(C(=O)N5CCCC5)CC4)nc3)cn2c1N(C)c1nc(-c2ccc(F)cc2)c(C#N)s1` [Compound 115, 2-((2-ethyl-6-(2-(4-(pyrrolidine-1-carbonyl)piperidin-1-yl)pyrimidin-5-yl)imidazo [1,2-a]pyridin-3-yl)(methyl)amino)-4-(4-fluorophenyl)thiazole-5-carbonitrile], the total exposure AUC(0-inf) in data set [1] was determined as 37100 ng·h/mL. The bioavailability in data set [1] was 48.5%. For the same compound, the results for the IC50 (in data set [2]; in data set [3]; against hATX/ENPP2) were no more than 200 nM, 200 to 800 nM and no more than 20 nM, respectively.
Regarding `CCc1nc2ccc(-c3ccc(N4CCC(C(=O)N5CCC(O)CC5)CC4)nc3)cn2c1N(C)c1nc(-c2ccc(F)cc2)c(C#N)s1` [Compound 119, 2-((2-ethyl-6-(6-(4-(4-hydroxypiperidine-1-carbonyl)piperidin-1-yl)pyridin-3-yl)imidazo[1,2-a]pyridin-3-yl)(methyl)amino)-4-(4-fluorophenyl)thiazole-5-carbonitrile], in data set [1], the total exposure AUC(0-inf) is 57100 ng·h/mL, the bioavailability was determined as 33.1% and the highest concentration (Cmax) was determined as 7680 ng/mL. Besides, the IC50 in data set [2] was 200 to 800 nM. The concentration for half-maximal inhibition (IC50) in data set [3] lay in the range of 200 to 800 nM. The compound further showed a concentration for half-maximal inhibition (IC50) at hATX/ENPP2 of no more than 20 nM.
Turning to `CCc1nc2ccc(-c3ccc(N4CCC(C(=O)N5CC(O)C5)CC4)nc3)cn2c1N(C)c1nc(-c2ccc(F)cc2)c(C#N)s1` [Compound 120, 2-((2-ethyl-6-(6-(4-(3-hydroxyazetidine-1-carbonyl)piperidin-1-yl)pyridin-3-yl)imidazo[1,2-a]pyridin-3-yl)(methyl)amino)-4-(4-fluorophenyl) thiazole-5-carbonitrile], the area under the curve AUC(0-inf) in data set [1] was 50500 ng·h/mL. In addition, the bioavailability in data set [1] was 40.8%. Moreover, in data set [1], the highest level (Cmax) was 8470 ng/mL. The IC50 in data set [2] is 200 to 800 nM; in data set [3], 200 to 800 nM; on hATX/ENPP2, no more than 20 nM.
For `CCc1nc2ccc(-c3cnc(N4CCC(C(=O)N5CCC5)CC4)nc3)cn2c1N(C)c1nc(-c2ccc(F)cc2)c(C#N)s1` [Compound 123, 2-((6-(2-(4-(azetidine-1-carbonyl)piperidin-1-yl)pyrimidin-5-yl)-2-ethylimidazo[1,2-a]pyridin-3-yl)(methyl)amino)-4-(4-fluorophenyl)thiazole-5-carbonitrile], in data set [1], the AUC(0-inf) was 61000 ng·h/mL, the bioavailability was 55.7% and the peak concentration (Cmax) stood at 7750 ng/mL. Further, the IC50 in data set [2] was in the range of 200 to 800 nM. The compound also came in with an IC50 in data set [3] of 200 to 800 nM. The same compound came in with a half-maximal inhibitory concentration (IC50) against hATX/ENPP2 of no more than 20 nM.
Take `CCc1nc2ccc(-c3ccc(N4CC(C(=O)N5CCC5)C4)nc3)cn2c1N(C)c1nc(-c2ccc(F)cc2)c(C#N)s1` [Compound 124, 2-((6-(6-(3-(azetidine-1-carbonyl)azetidin-1-yl)pyridin-3-yl)-2-ethylimidazo[1,2-a]pyridin-3-yl)(methyl)amino)-4-(4-fluorophenyl)thiazole-5-carbonitrile]: in data set [1], the AUC(0-inf) turned out to be 13100 ng·h/mL, the bioavailability was 40% and the maximum concentration (Cmax) stood at 3820 ng/mL. Also, the IC50 in data set [2] fell in the range of 200 to 800 nM. In data set [3], the IC50 lay in the range of 200 to 800 nM. Also, the IC50 on hATX/ENPP2 lay within 20 to 200 nM.
Consider `CCc1nc2ccc(-c3ccc(N4CCC(C(=O)N5CCOCC5)CC4)nc3)cn2c1N(C)c1nc(-c2ccc(F)cc2)c(C#N)s1` [Compound 126, 2-((2-ethyl-6-(6-(4-(morpholine-4-carbonyl)piperidin-1-yl)pyridin-3-yl)imidazo[1,2-a]pyridin-3-yl)(methyl)amino)-4-(4-fluorophenyl)thiazole-5-carbonitrile], for which, in data set [1], the AUC(0-inf) is 38300 ng·h/mL, the bioavailability was 59.2% and the maximum concentration (Cmax) turned out to be 5580 ng/mL. Also, in data set [2], the 50% inhibitory concentration (IC50) is no more than 200 nM. The compound further returned an IC50 in data set [3] of 200 to 800 nM. On hATX/ENPP2, this compound returned a half-maximal inhibitory concentration (IC50) of no more than 20 nM.

The values are drawn from patent publication US11970493B2, “Autotaxin inhibitor compounds” (ILDONG PHARMACEUTICAL CO., LTD., priority 2020, dated 2024).
